# Assay results published in PubChem BioAssay (NCI).
#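 Compound exposure: 48 hours, 5 concentrations, 96-well plates. TGI: concentration producing complete growth inhibition.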
# Tests used:
# Assay in all cases: growth of human tumour cells (NCI), 48 h
# TK-10 renal = system: TK-10 renal
# SF-268 CNS = system: SF-268 CNS
# MALME-3M melanoma = system: MALME-3M melanoma
# EKVX NSCLC = system: EKVX NSCLC
# RXF 393 renal = system: RXF 393 renal
# SK-OV-3 ovarian = system: SK-OV-3 ovarian
# OVCAR-5 ovarian = system: OVCAR-5 ovarian
# OVCAR-4 ovarian = system: OVCAR-4 ovarian
# NCI-H226 lung = system: NCI-H226 lung
# DMS 273 small cell lung = system: DMS 273 small cell lung
# RPMI-8226 leukemia = system: RPMI-8226 leukemia
# A549 NSCLC = system: A549 NSCLC
# UO-31 renal = system: UO-31 renal
# M19-MEL melanoma = system: M19-MEL melanoma
# LXFL 529 NSCLC = system: LXFL 529 NSCLC
# HOP-18 NSCLC = system: HOP-18 NSCLC
# SR leukemia = system: SR leukemia
# KM20L2 colon = system: KM20L2 colon
# DMS 114 small cell lung = system: DMS 114 small cell lung
# SNB-75 CNS = system: SNB-75 CNS
# HCC-2998 colon = system: HCC-2998 colon
# SNB-78 CNS = system: SNB-78 CNS
# SF-539 CNS = system: SF-539 CNS
# SK-MEL-5 melanoma = system: SK-MEL-5 melanoma
# HOP-62 NSCLC = system: HOP-62 NSCLC
# CAKI-1 renal = system: CAKI-1 renal
# DLD-1 colon = system: DLD-1 colon
# HL-60(TB) leukemia = system: HL-60(TB) leukemia
# ACHN renal = system: ACHN renal
# SK-MEL-2 melanoma = system: SK-MEL-2 melanoma
# A498 renal = system: A498 renal
# SW-620 colon = system: SW-620 colon
# COLO 205 colon = system: COLO 205 colon
# SN12C renal = system: SN12C renal
# HOP-92 NSCLC = system: HOP-92 NSCLC
# NCI-H23 lung = system: NCI-H23 lung
# NCI-H460 lung = system: NCI-H460 lung
# IGROV1 ovarian = system: IGROV1 ovarian
# KM12 colon = system: KM12 colon
# RXF-631 renal = system: RXF-631 renal
# SNB-19 CNS = system: SNB-19 CNS
# HCT-116 colon = system: HCT-116 colon
# UACC-257 melanoma = system: UACC-257 melanoma
# HCT-15 colon = system: HCT-15 colon
# M14 melanoma = system: M14 melanoma
# 786-0 renal = system: 786-0 renal
# SF-295 CNS = system: SF-295 CNS
# HT29 colon = system: HT29 colon
# MOLT-4 leukemia = system: MOLT-4 leukemia
# CCRF-CEM leukemia = system: CCRF-CEM leukemia
# SK-MEL-28 melanoma = system: SK-MEL-28 melanoma
# K-562 leukemia = system: K-562 leukemia
# OVCAR-8 ovarian = system: OVCAR-8 ovarian
# U251 CNS = system: U251 CNS
# LOX IMVI melanoma = system: LOX IMVI melanoma
# OVCAR-3 ovarian = system: OVCAR-3 ovarian
# XF 498 CNS = system: XF 498 CNS
# NCI-H522 lung = system: NCI-H522 lung
# UACC-62 melanoma = system: UACC-62 melanoma
compound,measurement,setting,value
Cc1ccc(C2CC(c3cccc([N+](=O)[O-])c3)=Nc3ccccc3S2)cc1 (centres undefined),TGI,TK-10 renal,> 100 µM
same,TGI,SF-268 CNS,99.1 µM
same,TGI,MALME-3M melanoma,> 100 µM
same,TGI,EKVX NSCLC,> 100 µM
same,TGI,RXF 393 renal,> 89.3 µM
same,TGI,SK-OV-3 ovarian,> 100 µM
same,TGI,OVCAR-5 ovarian,> 100 µM
same,TGI,OVCAR-4 ovarian,> 100 µM
same,TGI,NCI-H226 lung,> 100 µM
same,TGI,DMS 273 small cell lung,> 100 µM
same,TGI,RPMI-8226 leukemia,41.7 µM
same,TGI,A549 NSCLC,> 100 µM
same,TGI,UO-31 renal,> 83.6 µM
same,TGI,M19-MEL melanoma,> 100 µM
same,TGI,LXFL 529 NSCLC,> 100 µM
same,TGI,HOP-18 NSCLC,> 100 µM
same,TGI,SR leukemia,> 100 µM
same,TGI,KM20L2 colon,> 100 µM
same,TGI,DMS 114 small cell lung,57.2 µM
same,TGI,SNB-75 CNS,> 96.1 µM
same,TGI,HCC-2998 colon,> 100 µM
same,TGI,SNB-78 CNS,> 31.6 µM
same,TGI,SF-539 CNS,> 96.3 µM
same,TGI,SK-MEL-5 melanoma,> 72.2 µM
same,TGI,HOP-62 NSCLC,> 100 µM
same,TGI,CAKI-1 renal,> 100 µM
same,TGI,DLD-1 colon,> 65 µM
same,TGI,HL-60(TB) leukemia,47.5 µM
same,TGI,ACHN renal,> 100 µM
same,TGI,SK-MEL-2 melanoma,> 100 µM
same,TGI,A498 renal,> 100 µM
same,TGI,SW-620 colon,46.2 µM
same,TGI,COLO 205 colon,> 100 µM
same,TGI,SN12C renal,> 90.4 µM
same,TGI,HOP-92 NSCLC,52.2 µM
same,TGI,NCI-H23 lung,> 76.4 µM
same,TGI,NCI-H460 lung,> 100 µM
same,TGI,IGROV1 ovarian,> 100 µM
same,TGI,KM12 colon,46.1 µM
same,TGI,RXF-631 renal,> 100 µM
same,TGI,SNB-19 CNS,> 100 µM
same,TGI,HCT-116 colon,27.1 µM
same,TGI,UACC-257 melanoma,> 100 µM
same,TGI,HCT-15 colon,> 100 µM
same,TGI,M14 melanoma,> 100 µM
same,TGI,786-0 renal,51.9 µM
same,TGI,SF-295 CNS,> 100 µM
same,TGI,HT29 colon,98.1 µM
same,TGI,MOLT-4 leukemia,> 81.8 µM
same,TGI,CCRF-CEM leukemia,> 81.8 µM
same,TGI,SK-MEL-28 melanoma,> 100 µM
same,TGI,K-562 leukemia,77.2 µM
same,TGI,OVCAR-8 ovarian,> 71.4 µM
same,TGI,U251 CNS,> 79.5 µM
same,TGI,LOX IMVI melanoma,51.9 µM
same,TGI,OVCAR-3 ovarian,> 74.7 µM
same,TGI,XF 498 CNS,> 100 µM
same,TGI,NCI-H522 lung,64.6 µM
same,TGI,UACC-62 melanoma,> 100 µM
